Data set [1] can be described thus: Acute oral toxicity test in rats. The settings on record: SD, rat, in vivo, single oral dose, suspended in 0.5% methyl cellulose, read-out: lethal dose (LD50) for oral administration. How it is done:
In this test, six-week old SPF SD rats were used with two rats assigned to each group. Each group was consisted of two rats. The compounds prepared in example 1, 7, 11, 17, 22, 24, 26, 28, 30, 32, 34, 42, 52, 54, 55, 56, 57, 59, 60, 61, 70, 75, 77, 79, 81, 83, 85, and 89 were suspended in 0.5% methyl cellulose, respectively. […] Also, hematological test and biochemical analysis were accomplished. After sacrificing the animals, autopsy was performed for macroscopic observations of the organs and tissues. As a result, there was no significant changes in clinical symptoms, body weight and mortalities. Also in hematology, serum chemistry parameters, macroscopic observation and drug-related changes were not observed.

A further data set has as its system isolated rat aorta. In words: Vasodilating effect on blood vessel excised from rats (methoxamine-constricted aorta). The following applies: isolated rat aorta constricted with methoxamine (3 μM); read-out: Concentration for inhibition of constriction induced by methoxamine in rat arota (IC50). From the text: Rats (350˜450 g, obtained from the Experimental Animal Team of the Korea Research Institute of Chemical Technology) were knocked to be unconscious by hitting the occipital region, sacrificed by cervical dislocation, and underwent thoracotomy. After being quickly removed, the thoracic aorta was deprived of the adipose tissue and cut into aortic rings of 3 mm width. The aorta was lightly rubbed with cotton club soaked in a modified Krebs Henseleit buffer (Physiological salt solution) to remove the inner epithelial layer therefrom. While being hung in an organ bath containing a physiological buffer, the vascular smooth muscle was allowed to equilibrate under a resting tension of 2 g and then, stand for 1 hour at 37° C. for stabilization, supplying a carbogen consisting of 95% O2˜5% CO2.
Thereafter, the vascular smooth muscle was constricted with 10^−5M phenylephrine and washed several times with physiological saline solution. The said procedure was repeated again to ensure the stable reactivity of vascular smooth muscle to repetitive constriction/relaxation.
Thereafter, 3×10^−6 M methoxamine was applied to induce an intensive constriction in the vascular smooth muscle. When the vasoconstriction induced by the methoxamine was reached and maintained to a maximum, test compounds and control material was cumulatively added to the organ bath in concentration of 1, 3, 10 and 30 μM, respectively, to examine the vasodilating effect. Cromakalim, BMS-180448 (the compound of formula 4) and BMS-191095 (the compound of formula 5), known to be the first generation KATP opener with potent vasodilating effect were used as control materials.
The change rate of constriction by the addition of the drugs compared to the maximal constriction induced by methoxamine was calculated to plot a concentration-relaxation response curve. Through a least linear regression analysis, IC50 that the drug concentration at which the vascular tissue is relaxed to 50% extent of the maximal constriction, was obtained for each drug.

Another data set deals with cortical neuron cells. In words: Protective effect on iron-induced neuronal cell injury (LDH release). It is filed as cell-based. The following applies: FeSO4 50 μM; for protective effect on neuron cell: Inhibition (%, 30 μM compound addition): LDH reduction vs control; for IC50: LDH. On the procedure: From the brains of 17˜18 day-old embryos, cortical neuron cells were isolated and then, cultured at 37° C. for 7˜9 days in a 5% CO2 incubator. The said cortical cell cultures were washed twice with MEM (Minimum essential medium) to reduce the serum level to 0.2%. […] Then, the compound of the said concentration was pre-treated for 30 min, respectively. For the experiment, test compound was dissolved in DMSO and diluted in a medium. At this time, the final concentration of DMSO was not allowed to exceed 0.1%. For control group, only vehicle was applied.
After the said pre-treatment, FeSO4 was added to the medium for a final concentration to be 50 μM. The medium was cultured in CO2 incubator for 24 hours. During the incubation, lactate dehydrogenase (LDH) was released by iron. The serum level of lactate dehydrogenase released into the medium was measured to assess necrosis of neuronal cell by the oxidative toxicity of iron. The protective effect on neuron cells of the test compounds was evaluated by calculating the LDH reduction rate of treatment-group compared with that of the control group.
On the technique in general: LDH leaks from cells whose membrane has failed.

As for `COC(OC)[C@@]1(C)Oc2ccc([N+](=O)[O-])cc2[C@@H](N(Cc2ccccc2)Cc2nnn(C)n2)[C@@H]1O` [Example 7, (2S,3S,4R)-6-nitro-4-[N-benzyl-N-(2-methyl-2H-tetrazol-5-ylmethyl)amino]-3-hydroxy-2-methyl-2-dimethoxymethyl-3,4-dihydro-2H-1-benzopyran], the LD50 in data set [1] is over 2000 mg/kg. The IC50 is 5.59 µM with isolated rat aorta and 34.1 µM in the data set with cortical neuron cells (Cortical neurone, 24 h). Besides, in the data set with cortical neuron cells (24 hours), the “protective effect on neuron cell: Inhibition (%, 30 μM compound addition)” value is on record as 59%.

For the compound `COC(OC)[C@@]1(C)Oc2ccc(N)cc2[C@@H](N(Cc2nnn(C)n2)c2cccc(Cl)c2)[C@@H]1O` [Example 22, (2S,3S,4R)-6-amino-4-[N-(3-chlorophenyl)-N-(2-methyl-2H-tetrazol-5-ylmethyl)amino]-3-hydroxy-2-methyl-2-dimethoxymethyl-3,4-dihydro-2H-1-benzopyran], the LD50 in data set [1] was over 2000 mg/kg. The IC50 was over 30 µM in the data set on isolated rat aorta and 5.9 µM in the data set on cortical neuron cells (Cortical neurone, 24 h). Besides, the “protective effect on neuron cell: Inhibition (%, 30 μM compound addition)” value in the data set on cortical neuron cells (24 hours) stood at 97%.

Take `COC(OC)[C@@]1(C)Oc2ccc([N+](=O)[O-])cc2[C@H](N(Cc2nnn(C)n2)c2cccc(Cl)c2)[C@H]1O` [Example 25, (2S,3R,4S)-6-nitro-4-[N-(3-chlorophenyl)-N-(2-methyl-2H-tetrazol-5-ylmethyl)amino]-3-hydroxy-2-methyl-2-dimethoxymethyl-3,4-dihydro-2H-1-benzopyran]: the IC50 with isolated rat aorta came to 27.4 µM. Besides, the “protective effect on neuron cell: Inhibition (%, 30 μM compound addition)” value with cortical neuron cells (24 hours) is 83%.

For `COC(OC)[C@@]1(C)Oc2ccc(N)cc2[C@H](N(Cc2nnn(C)n2)c2cccc(Cl)c2)[C@H]1O` [Example 26, (2S,3R,4S)-6-amino-4-[N-(3-chlorophenyl)-N-(2-methyl-2H-tetrazol-5-ylmethyl)amino]-3-hydroxy-2-methyl-2-dimethoxymethyl-3,4-dihydro-2H-1-benzopyran], the LD50 in data set [1] is over 2000 mg/kg. Also, the IC50 came out at 24.6 µM in the data set with isolated rat aorta and 2.2 µM in the data set on cortical neuron cells (Cortical neurone, 24 h). Besides, the “protective effect on neuron cell: Inhibition (%, 30 μM compound addition)” value in the data set on cortical neuron cells (24 hours) worked out at 97%.

Take `COC(OC)[C@@]1(C)Oc2ccc([N+](=O)[O-])cc2[C@H](N(Cc2nnn(C)n2)c2ccc(OC(F)(F)F)cc2)[C@H]1O` [Example 31, (2S,3R,4S)-6-nitro-4-[N-(4-trifluoromethoxyphenyl)-N-(2-methyl-2H-tetrazol-5-ylmethyl)amino]-3-hydroxy-2-methyl-2-dimethoxymethyl-3,4-dihydro-2H-1-benzopyran]: the IC50 in the data set with isolated rat aorta is over 30 µM; in the data set with cortical neuron cells (Cortical neurone, 24 h), under 2 µM; in the data set on cortical neuron cells (24 hours) it was 1.8 µM. Further, the “protective effect on neuron cell: Inhibition (%, 30 μM compound addition)” value in the data set on cortical neuron cells (24 hours) is 86%.

`COC(OC)[C@@]1(C)Oc2ccc(N)cc2[C@H](N(Cc2nnn(C)n2)c2ccc(C(F)(F)F)cc2)[C@H]1O` [Example 34, (2S,3R,4S)-6-amino-4-[N-(4-trifluoromethylphenyl)-N-(2-methyl-2H-tetrazol-5-ylmethyl)amino]-3-hydroxy-2-methyl-2-dimethoxymethyl-3,4-dihydro-2H-1-benzopyran]: in data set [1], the LD50 was over 2000 mg/kg. Besides, the IC50 was over 30 µM with isolated rat aorta and 1.5 µM in the data set on cortical neuron cells (Cortical neurone, 24 h). Also, the “protective effect on neuron cell: Inhibition (%, 30 μM compound addition)” value with cortical neuron cells (24 hours) is 111%.

Turning to `COC(OC)[C@@]1(C)Oc2ccc(N)cc2[C@@H](N(Cc2nnn(C)n2)c2ccc(C(F)(F)F)cc2)[C@@H]1O` [Example 75, (2S,3S,4R)-6-amino-4-[N-(4-trifluoromethylphenyl)-N-(2-methyl-2H-tetrazol-5-ylmethyl)amino]-3-hydroxy-2-methyl-2-dimethoxymethyl-3,4-dihydro-2H-1-benzopyran], the LD50 in data set [1] was over 2000 mg/kg. The IC50 in the data set with isolated rat aorta is over 30 µM; in the data set on cortical neuron cells (Cortical neurone, 24 h), under 2 µM; in the data set with cortical neuron cells (24 hours), 1.8 µM. In addition, in the data set with cortical neuron cells (24 hours), the “protective effect on neuron cell: Inhibition (%, 30 μM compound addition)” value turned out to be 125%.

In the case of `COC(OC)[C@]1(C)Oc2ccc(N)cc2[C@@H](N(Cc2nnn(C)n2)c2ccc(C(F)(F)F)cc2)[C@@H]1O` [Example 77, (2R,3S,4R)-6-amino-4-[N-(4-trifluoromethylphenyl)-N-(2-methyl-2H-tetrazol-5-ylmethyl)amino]-3-hydroxy-2-methyl-2-dimethoxymethyl-3,4-dihydro-2H-1-benzopyran], the LD50 in data set [1] was over 2000 mg/kg. For the same compound, the IC50 in the data set on isolated rat aorta was over 30 µM; with cortical neuron cells (Cortical neurone, 24 h) it was under 2 µM; with cortical neuron cells (24 hours) it was 1.9 µM. In addition, in the data set with cortical neuron cells (24 hours), the “protective effect on neuron cell: Inhibition (%, 30 μM compound addition)” value is 111%.

On to `COC(OC)[C@]1(C)Oc2ccc(N)cc2[C@H](N(Cc2nnn(C)n2)c2ccc(OC(F)(F)F)cc2)[C@H]1O` [Example 83, (2R,3R,4S)-6-amino-4-[N-(4-trifluoromethoxyphenyl)-N-(2-methyl-2H-tetrazol-5-ylmethyl)amino]-3-hydroxy-2-methyl-2-dimethoxymethyl-3,4-dihydro-2H-1-benzopyran], for which the LD50 in data set [1] was over 2000 mg/kg. Further, the IC50 with isolated rat aorta was over 30 µM; in the data set with cortical neuron cells (Cortical neurone, 24 h) it was 3.7 µM. In the data set on cortical neuron cells (24 hours), the “protective effect on neuron cell: Inhibition (%, 30 μM compound addition)” value is recorded as 80%.

For `COC(OC)[C@]1(C)Oc2ccc(N)cc2[C@@H](N(Cc2nnn(C)n2)c2ccc(OC(F)(F)F)cc2)[C@@H]1O` [Example 85, (2R,3S,4R)-6-amino-4-[N-(4-trifluoromethoxyphenyl)-N-(2-methyl-2H-tetrazol-5ylmethyl)amino]-3-hydroxy-2-methyl-2-dimethoxymethyl-3,4-dihydro-2H-1-benzopyran], the LD50 in data set [1] is over 2000 mg/kg. For the same compound, the IC50 was over 30 µM in the data set with isolated rat aorta; under 2 µM with cortical neuron cells (Cortical neurone, 24 h); 1.8 µM in the data set on cortical neuron cells (24 hours). Moreover, in the data set on cortical neuron cells (24 hours), the “protective effect on neuron cell: Inhibition (%, 30 μM compound addition)” value is 119%.

As to `COC(OC)[C@@]1(C)Oc2ccc([N+](=O)[O-])c(C)c2[C@@H](N(Cc2nnn(C)n2)c2ccc(Cl)cc2)[C@@H]1O` [Example 98, (2S,3S,4R)-6-nitro-5-methyl-4-[N-(4-chlorophenyl)-N-(2-methyl-2H-tetrazol-5-ylmethyl)amino]-3-hydroxy-2-methyl-2-dimethoxymethyl-3,4-dihydro-2H-1-benzopyran], the IC50 in the data set on isolated rat aorta is 7.34 µM; with cortical neuron cells (Cortical neurone, 24 h), 10.5 µM. The “protective effect on neuron cell: Inhibition (%, 30 μM compound addition)” value in the data set on cortical neuron cells (24 hours) is 85%.

Source of the values: patent publication US7414068B2, “Benzopyran derivatives substituted with secondary amines including tetrazole, method for the preparation thereof and pharmaceutical compositions containing them” (Dongbu Hannong Chemical Co., Ltd., priority 2002, dated 2008).
